Measurements reported in patent EP2067861A1, “Animals of the rattus genus wherein msh6 expression is functionally decreased and methods for the generation of specific mutants therefrom” (Koninklijke Nederlandse Akademie van Wetenschappen, priority 2007, dated 2009).

Tests used:
A:T base pairs = settings: Justice et al. (1999); cited from earlier work
wild-type males = assay: Survival of ENU treated wild-type males (previous studies); type: in vivo, rat; settings: unpublished data
Excerpt: The efficiency of ENU is dependent of the dose, reflected by a higher mutagenicity after three weekly administrations of low doses of the mutagen compared to a single high-dose injection (Justice et al. (2000) Mamm Genome 11, 484-8). Furthermore it has been shown that higher ENU concentrations increase the mutation frequency (Smits et al. (2004) Pharmacogenet Genomics 16, 159-69; Smits and Cuppen (2006) Trends Genet. 22, 232-40). To determine the optimal ENU concentration we performed an ENU dose-response experiment and determined the fertility of the founders. At 12 weeks of age msh6^-/- males were treated with 3 weekly doses of different concentrations of the mutagen. Fertility was determined after a full cycle of spermatogenesis (± 10 weeks) by breeding and/or histological analysis of the testes. At concentrations of 35, 30 and 25 mg/kg, respectively 1/8, 5/8 and 4/6 males were fertile (Table 5). Compared to earlier studies, where at 40 and 35 mg/kg ENU respectively 6/10 and 10/10 rats are fertile (Smits and Cuppen (2006) Trends Genet. 22, 232-40), this is a considerable decrease. It is known that MSH6 deficiency reduces lifespan in both rats (van Boxtel et al. (2007) submitted) and mice (Edelmann (1997) Cell 91, 467-77) as a result of tumor development. MSH6 deficiency increased ENU sensitivity not only in fertility, but also in survival. […]

In the case of `CCN(N=O)C(N)=O` [ENU, N-ethyl-N-nitrosourea], the “A:T->C:G transversions” value (A:T base pairs) is listed as 5%, the “A:T->G:C transitions” value (A:T base pairs) is listed as 38% and the “A:T->T:A transversions” value (A:T base pairs) is listed as 44%. The “G:C ->A:T transitions” value (A:T base pairs) was 8%, the “G:C->C:G transversions” value (A:T base pairs) was 3% and the “G:C->T:A transversions” value (A:T base pairs) was 2%. The missense mutations (A:T base pairs) was “about 64%”, the nonsense mutations (A:T base pairs) was ~10% and the splicing errors (A:T base pairs) was ~26%. The “survived till 1,5 years of age” value (wild-type males; 35 mg/kg bodyweight ENU) was 9 out of 10 and the “survived till 1,5 years of age” value (wild-type males; 40 mg/kg bodyweight ENU) was 10 out of 10.
